# In article PMC9682480, ““Vermellogens” and the Development of CB[8]-Based Supramolecular Switches Using pH-Responsive and Non-Toxic Viologen Analogues” (Journal of the American Chemical Society, 2022):
# Assays:
# [1] = pKa determination by UV–vis acid–base titrations in water; format: physicochemical; conditions: for pKa value (linear fitting of pH against log absorbance ratio): 20 μM chloride salt in NaH2PO4/Na2HPO4, KHCO3/K2CO3 and Na2HPO4/Na2PO4 buffers, supplement; for pKa: aqueous phosphate and carbonate buffers, RH^2+/R^+ or MH^+/M, UV–vis titrations in water, chloride salts
# From the text: Next, in our study of the stimuli-responsiveness of the “vermellogens”, we proceeded to verify the new analogues as pH-based molecular switches, by conducting UV–vis acid–base titrations in water for the compounds Ra–eH·2Cl. All the new “vermellogens” show similar π–π* main absorption bands centered at λ^1max = 366–377 nm at neutral or slightly acidic pH. An increase in the basicity of the solution produces the decrease of the aforementioned bands and the concomitant rise of new absorptions associated with the deprotonated compounds and centered at λ^2max = 460–475 nm. The pKa values obtained by the aforementioned UV–vis titrations for Ra–eH·2Cl are quite similar, showing no dependence on the substituent on the pyridinium N^+ atoms within their structures (Table 1 and Figures S115–S125). Furthermore, to evaluate the effect of the two different pyridinium heterocycles on the observed anomalous pKa’s, two analogues were prepared (Ma–bH·Cl), in which one of these moieties was substituted by a neutral phenyl ring.
# 4.2. pK a determination for Rb by UV-Vis
# Figure S 116: UV-Vis spectra for the titration of R b·2Cl at 20 μM in NaH 2PO4/Na2HPO4, KHCO3/K2CO3 and Na2HPO4/Na2PO4 buffers. On the top right: Absorption of R b+ at λ = 474 nm plotted against pH. pH V (mL) of V (mL) of V (mL) of V (mL) of V (mL) of ABS log[A474-(measured) solution A solution B solution C solution D solution E (474 ARb2+)/(ARb1+- […]
# Table S 4: Experimental data obtained for the UV-Vis titration of R b·2Cl at 20 μM in NaH2PO4/Na2HPO4, KHCO3/K2CO3 and Na2HPO4/Na2PO4 buffer. Solution A: 20 μM of R b·2Cl and 0.05 M of NaH2PO4. Solution B: 20 μM of R b·2Cl and 0.05 M of NaHPO4. Solution C: 20 μM of R b·2Cl and 0.05 M of Na2PO4. Solution D: 20 μM of R b·2Cl and 0.05 M of KHCO3. Solution E: 20 μM of R b·2Cl and 0.05 M of […]
# 4.4. pK a determination for Rc by UV-Vis
# Figure S 119: UV-Vis spectra for the titration of R c·2Cl at 20 μM in NaH 2PO4/Na2HPO4, KHCO3/K2CO3 and Na2HPO4/Na2PO4 buffers. On the top right: Absorption of R c+ at λ = 466 nm plotted against pH. pH V (mL) of V (mL) of V (mL) of V (mL) of V (mL) of ABS log[A466-(measured) solution A solution B solution C solution D solution E (466 ARc2+)/(ARc+- […]
# Table S 5: Experimental data obtained for the UV-Vis titration of R c·2Cl at 20 μM in NaH2PO4/Na2HPO4, KHCO3/K2CO3 and Na2HPO4/Na2PO4 buffer. Solution A: 20 μM of Rc·2Cl and 0.05 M of NaH2PO4. Solution B: 20 μM of R c·2Cl and 0.05 M of NaHPO4. Solution C: 20 μM of R c·2Cl and 0.05 M of Na2PO4. Solution D: 20 μM of R c·2Cl and 0.05 M of KHCO3. Solution E: 20 μM of R c·2Cl and 0.05 M of […]
# 4.6. pK a determination for Rd by UV-Vis
# Figure S 122: UV-Vis spectra for the titration of R d·2Cl at 20 μM in NaH 2PO4/Na2HPO4, KHCO3/K2CO3 and Na2HPO4/Na2PO4 buffers. On the top right: Absorption of R d+ at λ = 475 nm plotted against pH. pH V (mL) of V (mL) of V (mL) of V (mL) of V (mL) of ABS log[A475-(measured) solution A solution B solution C solution D solution E (475 ARd2+)/(ARd1+- […]
# Table S 6: Experimental data obtained for the UV-Vis titration of R d·2Cl at 20 μM in NaH2PO4/Na2HPO4, KHCO3/K2CO3 and Na2HPO4/Na2PO4 buffer. Solution A: 20 μM of R d·2Cl and 0.05 M of NaH2PO4. Solution B: 20 μM of R d·2Cl and 0.05 M of NaHPO4. Solution C: 20 μM of R d·2Cl and 0.05 M of Na2PO4. Solution D: 20 μM of R d·2Cl and 0.05 M of KHCO3. Solution E: 20 μM of R d·2Cl and 0.05 M of […]
# 4.8. pK a determination for Re by UV-Vis
# Figure S 125: UV-Vis spectra for the titration of R e·2Cl at 20 μM in NaH 2PO4/Na2HPO4, KHCO3/K2CO3 and Na2HPO4/Na2PO4 buffers. On the top right: Absorption of R e+ at λ = 460 nm plotted against pH. pH V (mL) of V (mL) of V (mL) of V (mL) of V (mL) of ABS log[A460-(measured) solution A solution B solution C solution D solution E (460 ARe2+)/(ARe1+- […]
# Table S 7: Experimental data obtained for the UV-Vis titration of R e·2Cl at 20 μM in NaH2PO4/Na2HPO4, KHCO3/K2CO3 and Na2HPO4/Na2PO4 buffer. Solution A: 20 μM of R e·2Cl and 0.05 M of […]
# [2] = Halide recognition by UV–vis titration in acetonitrile (TBACl); format: binding
# From the text: (§1) Finally, diffraction-grade single crystals for RaH·2Cl could be obtained, with the solid-state structure showing hydrogen bonding between the hydrazone moiety with a chloride counterion and a crystallization water (Figure 1a).[34] Moved by this observation, and other reported evidence regarding the anion binding abilities of this type of hydrazone moieties,[30],[35] we decided to study the ability of the “red thread” RaH^2+ to recognize halide anions in acetonitrile by UV–vis titrations and ^1H-NMR. […] Conversely, the addition of increasing amounts of TBACl/Br to 33–20 μM solutions of RaH·2PF6, led to the absorption bands associated with the free form of RaH^2+ at λmax = 370 nm, decreasing in favor of new bands with a slight shift to λmax = 378 and 370 nm, tentatively assigned to RaH^2+···Cl/Br complexes and with the data fitting appropriately to 1:1 association processes (Ka = (7.03 ± 0.14)·10^4 M^–1 for Cl^–, (1.41 ± 0.07)·10^4 M^–1 for Br^–). […]
# (§2) NMR titrations could not be performed due to the precipitation of R aH2+ upon 2 eqv. of the corresponding salt. Spectra were recorded at 0, 0.5, 1, 2 and 4 eq. of the corresponding salt to follow the chemical shift of the […]
# (§3) Concentration (μM) Absorbance Residual […]
# [3] = Halide recognition by UV–vis titration in acetonitrile (TBABr); format: binding
# From the text: as §1, §2, §3
# [4] = Fluoride interaction by UV–vis titration in acetonitrile (TBAF); format: binding; conditions: 1 μM, 2:1 process
# From the text: (§4) Finally, diffraction-grade single crystals for RaH·2Cl could be obtained, with the solid-state structure showing hydrogen bonding between the hydrazone moiety with a chloride counterion and a crystallization water (Figure 1a).[34] Moved by this observation, and other reported evidence regarding the anion binding abilities of this type of hydrazone moieties,[30],[35] we decided to study the ability of the “red thread” RaH^2+ to recognize halide anions in acetonitrile by UV–vis titrations and ^1H-NMR. […] Conversely, the addition of increasing amounts of TBACl/Br to 33–20 μM solutions of RaH·2PF6, led to the absorption bands associated with the free form of RaH^2+ at λmax = 370 nm, decreasing in favor of new bands with a slight shift to λmax = 378 and 370 nm, tentatively assigned to RaH^2+···Cl/Br complexes and with the data fitting appropriately to 1:1 association processes (Ka = (7.03 ± 0.14)·10^4 M^–1 for Cl^–, (1.41 ± 0.07)·10^4 M^–1 for Br^–). In both cases, the results agreed with those expected for the recognition through hydrogen bonding between the hydrazone group and the anions, resulting in a bathochromic shift of the absorption band.[30],[35] […]
# as §2
# [5] = Halide recognition in acetonitrile (iodide); format: binding; conditions: UV–vis titrations and 1H-NMR
# From the text: as §4, §2
# HFF-1 cells = experiment: Cell viability assay (WST-1) in human fibroblastic cell line; format: cell-based
# Procedure: To conclude with this part of our work on the molecular responsiveness of the “vermellogens,” we decided to substantiate whether the bis-pyridinium core in the compounds would have or not a viologen-like reversible redox behavior. Thus, cyclic voltamograms were recorded for RaH·2Cl (2 mM) in buffered aqueous solutions at pH = 2 (0.05 M H3PO4/NaH2PO4), 7 (0.05 M NaH2PO4/Na2HPO4), and 12 (0.05 M Na2HPO4/Na3PO4). Those shown both the acidic (RaH^2+) and basic (Ra^+) forms of the “red thread” owning non-reversible redox peaks (Figure 1b).
# Fibroblast cells (HFF-1; ATTC® SCRC-1041TM) were maintained in Dulbecco’s modified eagle’s medium (DMEM) supplemented with 10% FBS and 1% P/S and kept at 37 °C in a humidified atmosphere containing 5% CO2 until their use. HFF-1 cells were seeded in 96 well-plates at an initial density of 10^4 cells/well and allowed to attach for 24 h at 37 °C. The following day, culture medium was removed, replenished by fresh medium (90 µl) and cells were exposed to different concentration of R aH·2Cl and MV (10 µl; final concentrations 0.01, 0.05, 0.1, 0.5 and 1 mM). Control conditions included cells cultured in culture medium, but in absence of compound. Cells were further incubated for 24 h at 37°C and cell viability was monitored using the tetrazolium salt (WST-1) method.6 Absorbance at 450 nm was measured using a Synergy HTX Plate Reader (Biotek, Winooski, VT, USA) and the percent of cell viability (%) was calculated as follows:
# Viability (%) = […]
# Where Asample and Anegative control depict those absorbance values measured at 450 nm in presence and in absence of compound, respectively. All conditions were tested by triplicate in two independent experiments. Data were expressed as mean ± standard deviation (SD). Statistical analysis was performed by two-ways and one-way ANOVA with Tukey’s LSD post hoc test using IBM SPSS Statistics version 23. A p ≤ 0.05 was considered statistically significant.
# Figure S 138: Compounds tested in WST-1 assay for cell viability.
# 6 Carballo-Pedrares, N.; Kattar, A.; Concheiro, A.; Alvarez-Lorenzo, C.; Rey-Rico, Niosomes-based gene delivery systems for effective transfection of human mesenchymal stem cells. A. Matter. Sci. Eng. 2021, 18, 112307.
compound,measurement,setting,value
C[n+]1ccc(N/N=C/c2cc[n+](Cc3ccccc3)cc2)cc1 [RcH·2X],pKa value (linear fitting of pH against log absorbance ratio),[1],8.6
same,pKa,[1],8.7
C/C(=N\Nc1cc[n+](C)cc1)c1cc[n+](C)cc1 [ReH·2X],pKa,[1],9.6
C[n+]1ccc(/C=N/Nc2cc[n+](Cc3ccccc3)cc2)cc1 [RdH·2X],pKa,[1],8.6
C[n+]1ccc(/C=N/Nc2cc[n+](C)cc2)cc1 [RaH·2PF6],Ka (1:1 association with Cl^–),[2],(7.03 ± 0.14)·10^4 M^–1
same,Ka (1:1 association with Br^–),[3],(1.41 ± 0.07)·10^4 M^–1
same,"Ka1 (first F^– equivalent, interaction with hydrazone group)",[4],(4.49 ± 0.77)·10^7 M^–1
same,Ka2 (deprotonation of the NH assisted by a second fluoride),[4],(5.43 ± 0.59)·10^7 M^–1
same,interaction with I^–,[5],no interaction
"C[n+]1ccc(-c2cc[n+](C)cc2)cc1 [MV^2+, paraquat, reference compound]",decrease of cell survival percentages relative to RaH^2+,"HFF-1 cells; HFF-1, from 0.5 mM",~3 fold
same,cell survival,"HFF-1 cells; HFF-1, from 0.5 mM concentration, 24 h, WST-1",severe decrease in cell survival
C(=N\Nc1cc[n+](Cc2ccccc2)cc1)/c1cc[n+](Cc2ccccc2)cc1 [RbH·2X],pKa value (linear fitting of pH against log absorbance ratio),[1],8.6
same,pKa,[1],8.6
